One compound from patent US11440906B2, “Biguanide derivatives and their rearrangement products for use in the treatment of cancer” (CENTRE NATIONAL DE LA RECHERCHE SCIENTIFIQUE, priority 2017, dated 2022) can be followed below.

Where two headings read alike, the source gives them in different places.

The IC50 is the concentration that inhibits the measured activity by half.

Test [1] deals with A375 Sensitive cells. The test can be described thus: Viability test, trypan blue exclusion, A375 Sensitive cells. It counts as cell-based, human. The conditions noted are these: for viability at 5 µM / viability at 10 µM: viable cells as percentage of DMSO control. The method in brief:
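A375 (B-Raf, CDKN2A, PTEN mutant) cells were exposed to compounds at 5.0 or 10 μM for 24 or 48 hr; CRO15 also at 0.5–50 μM for 48 hr or 5 μM for 2–48 hr; DMSO control. Viable cells were counted by trypan blue exclusion, as % of control. Three experiments in triplicate.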

In test [2] the test system is A375 resistant melanoma cells. Nature of the test: Viability test of CRO15 on resistant melanoma cells. The test is classed as cell-based, human. The conditions noted are these: 48 hr, FIG. 4A. The method, then:
Resistant melanoma cell lines A375 and SKMel28 were a gift from Professor P. Marchetti and described in Corazao-Rozas et al. (2013). Cells were grown in RPMI 1640 or in DMEM supplemented with 10% of Foetal Calf Serum (FCS) and penicillin/streptomycin (100 U/ml/[…]) at 37° C. and 5% CO2.
For trypan blue staining, […] of cells (melanoma and normal human cells) were aseptically transferred to a 1.5 mL clear Eppendorf tube and incubated for 3 min at room temperature with an equal volume of 0.4% trypan blue solution. Viable cells were counted and the results are expressed as the percentage of the value of control cells. All the experiments are performed 3 times in triplicate.
A375 sensitive and resistant melanoma cells were treated with 5 μM of CRO15 for 48 hr or with 5 μM of PLX4032 for 48 hr or with DMSO (Control). At 48 hours, viable cells were counted using the trypan blue dye exclusion method. The results are normalized as percentages compare to the control and data means±SEM of three independent experiments performed in triplicate *p<0.05; **p<0.01; ***p<0.001.

The test system of test [3] is A375 sensitive melanoma cells. Nature of the test: In vivo murine cancer model, A375 sensitive xenograft. Also noted: species or system BALB/c nu/nu (nude) mice. Particulars: 0.7 mg/mouse/day intraperitoneal. The method, then: (§1) Animal experiments were carried out in accordance with the Declaration of Helsinki and were approved by a local ethical committee CIEPAL (Comité Institutionnel d'Ethique Pour l'Animal de Laboratoire-Azur). Female immune-deficient BALB/c nu/nu (nude) mice were obtained at 5 weeks of age from Envigo Laboratory (Gannat, France). Nude mice were inoculated subcutaneously with A375 sensitive or resistant melanoma cells (1.0×10^6 cells/mouse). After tumor apparition (±5 days), animals received intraperitoneal injection of Labrafil (Control), PLX4032 (0.7 mg/mouse/day) or CRO15 (0.7 mg/mouse/day) dissolved in Labrafil. The growth tumor curves were determined by measuring the tumor volume using the equation V=(L*W2)/2 (V=tumor volume, W=tumor width, L=tumor length). At the end of the experiment, mice were euthanized by cervical dislocation and tumors were taken for western blot and immunofluorescence experiments (LC3, Cleaved Caspase 3). TUNEL assay was performed using the In Situ Cell Death Detection Kit (Roche, Meylan, France). The results are shown in FIGS. 3A and 3B (A375 sensitive melanoma cells), and 4B and 4C (A375 resistant melanoma cells).

Test [4] deals with A375 resistant melanoma cells. Nature of the test: In vivo murine cancer model, A375 resistant xenograft. Details: species or system BALB/c nu/nu (nude) mice. Particulars: 0.7 mg/mouse/day intraperitoneal. The method, then: as §1
In Vivo Murine Cancer Model Animal experiments were carried out in accordance with the Declaration of Helsinki and were approved by a local ethical committee CIEPAL (Comite Institutionnel d'Ethique Pour l'Animal de Laboratoire-Azur). Female immune-deficient BALB/c nu/nu (nude) mice were obtained at 5 weeks of age from Envigo Laboratory (Gannat, France). Nude mice were inoculated subcutaneously with A375 resistant melanoma cells (1.0×10^6 cells/mouse). After tumor apparition (+5 days), animals received intraperitoneal injection of Labrafil (Control), PLX4032 (0.7 mg/mouse/day) or MTF319 (0.7 mg/mouse/day) dissolved in Labrafil. The growth tumor curves were determined by measuring the tumor volume using the equation V=(L*W2)/2 (V=tumor volume, W=tumor width, L=tumor length). At the end of the experiment, mice were euthanized by cervical dislocation.

For `Nc1nc(Nc2ccccc2SSc2ccccc2Nc2nc(N)nc(C(Cl)(Cl)Cl)n2)nc(C(Cl)(Cl)Cl)n1` [CRO15, N2,N2′-(disulfanediylbis(2,1-phenylene))bis(6-(trichloromethyl)-1,3,5-triazine-2,4-diamine)], the “decrease of the viability compared with PLX4032” value was “more important with CRO15 than with PLX4032” in test [1] (5 μM each, 48 hr, FIG. 1A); “more important with CRO15 than with PLX4032” in test [2] (5 μM each, A375 sensitive and resistant). Also, the “cell viability of A375 S cells, kinetic” value in test [1] (5 μM, 2 hr to 48 hr, FIG. 1A) is reported as “induces a decrease of the viability of melanoma cells”. For the same compound, in test [1] (5 μM, 48 hr, FIG. 4A), the “cell viability, A375 sensitive melanoma cells” value is “induces a decrease of the cell viability”. The “dose-response on melanoma cells viability” value in test [1] (0.5-50 μM, 48 hr, FIG. 1B) is “dose-response relationship”. The viability at 5 µM in test [1] (Homo sapiens, A-375, 5 μM, 24 h, read-out: Viab A375 5 μM/ 24 h) came to 36%; in test [1] (Homo sapiens, A-375, 5 μM, 48 h, read-out: Viab A375 5 μM/ 48 h) it was 27%. The viability at 10 µM in test [1] (Homo sapiens, A-375, 24 h, read-out: Viab A375 10 μM/ 24 h) is 23%; in test [1] (Homo sapiens, A-375, 48 h, read-out: Viab A375 10 μM/ 48 h) it was 2.6%. Moreover, the IC50 in test [1] (Homo sapiens, A-375, A375 Sensitive cells, 48 hr, read-out: IC50 of CRO15) was determined as 3.75 µM. Moreover, in test [2] (5 μM), the “cell viability, A375 resistant melanoma cells” value is “induces a decrease of the cell viability”. Further, the tumor volume result in test [3] (FIG. 3A) was “reduces”; in test [4] (FIG. 4B, 6A), “reduces”. Moreover, the tumor weight result in test [3] (FIG. 3B) is “reduces”; in test [4] (FIG. 4C, 6B), “reduces”.
